Experimental data published in US6737383B1, “Herbicidal oxadiazolidines” (priority 1999, dated 2004).

Columns and labels:
[1] = system: pigweed; test: Test B pre/postemergence pigweed; assay type: in vivo, Amaranthus retroflexus
Method in brief: (§1)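 Herbicidal effect was estimated by eye on a ten-point control scale after plants spent twelve to sixteen days in a greenhouse following soil or foliar treatment. Foliar sprays targeted plants at one to four leaves; all doses were formulated in a non-phytotoxic solvent with surfactant.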

[2] = system: surinam grass; test: Test B pre/postemergence surinam grass; assay type: in vivo, Brachiaria decumbens
Method in brief: as §1

[3] = system: bedstraw; test: Test B pre/postemergence bedstraw; assay type: in vivo, Galium aparine
Method in brief: as §1

[4] = system: soybean; test: Test B pre/postemergence soybean; assay type: in vivo, Glycine max
Method in brief: as §1

[5] = system: purple nutsedge; test: Test B pre/postemergence purple nutsedge; assay type: in vivo, Cyperus rotundus
Method in brief: as §1

[6] = system: morningglory; test: Test B pre/postemergence morningglory; assay type: in vivo, Ipomoea hederacea
Method in brief: as §1

[7] = system: giant foxtail; test: Test B pre/postemergence giant foxtail; assay type: in vivo, Setaria faberii
Method in brief: as §1

[8] = system: velvetleaf; test: Test B pre/postemergence velvetleaf; assay type: in vivo, Abutilon theophrasti
Method in brief: as §1

[9] = system: rape; test: Test B pre/postemergence rape; assay type: in vivo, Brassica napus
Method in brief: as §1

[10] = system: rice; test: Test B flood test rice; assay type: in vivo, Oryza sativa
Method in brief: (§2)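 Each value is a visual injury score relative to controls, with 10 meaning complete control and 0 no effect. Evaluation took place twelve to sixteen days after the 2-leaf-stage plants were treated and kept in the greenhouse.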

[11] = system: corn; test: Test B pre/postemergence corn; assay type: in vivo, Zea mays
Method in brief: as §1

[12] = system: blackgrass; test: Test B pre/postemergence blackgrass; assay type: in vivo, Alopecurus myosuroides
Method in brief: as §1

[13] = system: duck salad; test: Test B flood test duck salad; assay type: in vivo, Heteranthera limosa
Method in brief: as §2

[14] = system: wild oat; test: Test B pre/postemergence wild oat; assay type: in vivo, Avena fatua
Method in brief: as §1

[15] = system: crabgrass; test: Test B pre/postemergence crabgrass; assay type: in vivo, Digitaria sanguinalis
Method in brief: as §1

[16] = system: wheat; test: Test B pre/postemergence wheat; assay type: in vivo, Triticum aestivum
Method in brief: as §1

[17] = Preemergence, Rate 62 g/ha, scale of 0 to 10 where 0 is no effect and 10 is complete control
[18] = Preemergence, Rate 250 g/ha, scale of 0 to 10 where 0 is no effect and 10 is complete control
[19] = Preemergence, Rate 500 g/ha, scale of 0 to 10 where 0 is no effect and 10 is complete control
[20] = Rate 62 g/ha, Postemergence, scale of 0 to 10 where 0 is no effect and 10 is complete control
[21] = Rate 125 g/ha, Preemergence, scale of 0 to 10 where 0 is no effect and 10 is complete control
[22] = Rate 500 g/ha, Postemergence, scale 0 to 10, 0 no effect, 10 complete control
[23] = Rate 125 g/ha, Postemergence, scale 0 to 10
[24] = Rate 62 g/ha, headed Pre-emergence (flood test species), scale 0 to 10 (0 no effect, 10 complete control)
[25] = Rate 125 g/ha, Pre-emergence, flood test species, scale 0 to 10 where 0 is no effect and 10 is complete control
[26] = Rate 250 g/ha, Pre-emergence, flood-test species, scale 0 to 10, 0 is no effect, 10 is complete control
[27] = Rate 500 g/ha, Pre-emergence, flood test species, scale 0 to 10 (0 no effect, 10 complete control)

## CC(C)N(C(=O)n1oc(=O)n([C@H](C)c2ccccc2)c1=O)c1ccc(F)cc1F [Compound 238]
[1]; [17]
  Redroot pigweed plant response rating: 0
[1]; [18]
  Redroot pigweed plant response rating: 0
[1]; [19]
  Plant response rating, Redroot pigweed: 9
[1]; [20]
  Redroot pigweed plant response rating: 0
[1]; [21]
  Redroot pigweed plant response rating: 0
[1]; Rate 250 g/ha, Postemergence
  Plant response rating (0 to 10; 0 is no effect, 10 is complete control), Redroot pigweed: 0
[1]; [22]
  Redroot pigweed plant response rating: 5
[2]; [17]
  B. signalgrass plant response rating: 0
[2]; Preemergence, Rate 250 g/ha, scale 0 to 10, 0 is no effect, 10 is complete control
  B. signalgrass plant response rating: 0
[2]; [19]
  Plant response rating, B. signalgrass: 0
[2]; [20]
  B. signalgrass plant response rating: 0
[2]; Rate 125 g/ha, Postemergence, scale 0 (no effect) to 10 (complete control)
  B. signalgrass plant response rating: 0
[2]; [21]
  B. signalgrass plant response rating: 0
[2]; Rate 250 g/ha, Postemergence
  Plant response rating (0 to 10; 0 is no effect, 10 is complete control), B. signalgrass: 0
[2]; [22]
  B. signalgrass plant response rating: 0
[3]; [17]
  Bedstraw plant response rating: 0
[3]; [18]
  Bedstraw plant response rating: 0
[3]; [19]
  Plant response rating, Bedstraw: 3
[3]; [20]
  Bedstraw plant response rating: 0
[3]; [23]
  Bedstraw plant response rating: 2
[3]; [21]
  Bedstraw plant response rating: 0
[3]; Rate 250 g/ha, Postemergence
  Plant response rating (0 to 10; 0 is no effect, 10 is complete control), Bedstraw: 8
[3]; [22]
  Bedstraw plant response rating: 8
[4]; [17]
  Soybean plant response rating: 0
[4]; [18]
  Soybean plant response rating: 0
[4]; [19]
  Plant response rating, Soybean: 0
[4]; [20]
  Soybean plant response rating: 1
[4]; [21]
  Soybean plant response rating: 0
[4]; [22]
  Soybean plant response rating: 2
[5]; [17]
  Nutsedge plant response rating: 0
[5]; [18]
  Nutsedge plant response rating: 0
[5]; [20]
  Nutsedge plant response rating: 0
[5]; [21]
  Nutsedge plant response rating: 0
[5]; Rate 250 g/ha, Postemergence
  Plant response rating (0 to 10; 0 is no effect, 10 is complete control), Nutsedge: 0
[5]; [22]
  Nutsedge plant response rating: 0
[6]; [17]
  Morningglory plant response rating: 0
[6]; [18]
  Morningglory plant response rating: 0
[6]; [19]
  Plant response rating, Morningglory: 3
[6]; [20]
  Morningglory plant response rating: 2
[6]; [21]
  Morningglory plant response rating: 0
[6]; Rate 250 g/ha, Postemergence
  Plant response rating (0 to 10; 0 is no effect, 10 is complete control), Morningglory: 3
[6]; [22]
  Morningglory plant response rating: 5
[7]; [17]
  Giant foxtail plant response rating: 5
[7]; [18]
  Giant foxtail plant response rating: 10
[7]; [19]
  Plant response rating, Giant foxtail: 10
[7]; [20]
  Giant foxtail plant response rating: 0
[7]; [21]
  Giant foxtail plant response rating: 6
[7]; Rate 250 g/ha, Postemergence
  Plant response rating (0 to 10; 0 is no effect, 10 is complete control), Giant foxtail: 0
[7]; [22]
  Giant foxtail plant response rating: 2
[8]; [17]
  Velvetleaf plant response rating: 0
[8]; [18]
  Velvetleaf plant response rating: 0
[8]; [19]
  Plant response rating, Velvetleaf: 3
[8]; [20]
  Velvetleaf plant response rating: 1
[8]; [21]
  Velvetleaf plant response rating: 0
[8]; [22]
  Velvetleaf plant response rating: 2
[9]; [17]
  Rape plant response rating: 0
[9]; [18]
  Rape plant response rating: 0
[9]; [19]
  Plant response rating, Rape: 10
[9]; [20]
  Rape plant response rating: 0
[9]; [21]
  Rape plant response rating: 0
[9]; Rate 250 g/ha, Postemergence
  Plant response rating (0 to 10; 0 is no effect, 10 is complete control), Rape: 4
[9]; [22]
  Rape plant response rating: 6
[10]; [24]
  Rice plant response rating: 0
[10]; [25]
  Rice plant response rating: 0
[10]; [26]
  Rice plant response rating: 0
[10]; [27]
  Rice plant response rating: 0
[11]; [17]
  Corn plant response rating: 0
[11]; [18]
  Corn plant response rating: 0
[11]; [19]
  Plant response rating, Corn: 0
[11]; [20]
  Corn plant response rating: 0
[11]; [23]
  Corn plant response rating: 0
[11]; [21]
  Corn plant response rating: 0
[11]; Rate 250 g/ha, Postemergence
  Plant response rating (0 to 10; 0 is no effect, 10 is complete control), Corn: 0
[11]; [22]
  Corn plant response rating: 0
[12]; [17]
  Blackgrass plant response rating: 0
[12]; [18]
  Blackgrass plant response rating: 0
[12]; [19]
  Plant response rating, Blackgrass: 0
[12]; [20]
  Blackgrass plant response rating: 0
[12]; [23]
  Blackgrass plant response rating: 0
[12]; [21]
  Blackgrass plant response rating: 0
[12]; Rate 250 g/ha, Postemergence
  Plant response rating (0 to 10; 0 is no effect, 10 is complete control), Blackgrass: 0
[12]; [22]
  Blackgrass plant response rating: 5
[13]; [24]
  Ducksalad plant response rating: 0
[13]; [25]
  Ducksalad plant response rating: 0
[13]; [26]
  Ducksalad plant response rating: 0
[13]; [27]
  Ducksalad plant response rating: 0
[14]; [17]
  Wild oats plant response rating: 0
[14]; [18]
  Wild oats plant response rating: 0
[14]; [19]
  Plant response rating, Wild oats: 3
[14]; [20]
  Wild oats plant response rating: 0
[14]; [21]
  Wild oats plant response rating: 0
[14]; [22]
  Wild oats plant response rating: 0
[15]; [17]
  Crabgrass plant response rating: 2
[15]; [18]
  Crabgrass plant response rating: 10
[15]; [19]
  Plant response rating, Crabgrass: 10
[15]; [20]
  Crabgrass plant response rating: 0
[15]; [21]
  Crabgrass plant response rating: 6
[15]; Rate 250 g/ha, Postemergence
  Plant response rating (0 to 10; 0 is no effect, 10 is complete control), Crabgrass: 2
[15]; [22]
  Crabgrass plant response rating: 5
[16]; [17]
  Wheat plant response rating: 0
[16]; [18]
  Wheat plant response rating: 0
[16]; [19]
  Plant response rating, Wheat: 2
[16]; [20]
  Wheat plant response rating: 0
[16]; [21]
  Wheat plant response rating: 0
[16]; [22]
  Wheat plant response rating: 0
